According to US20260286322A1, “PROTEIN TYROSINE P[…] DOMAIN PEPTIDE DIMER FOR NERVOUS SYSTEM REPAIR” (NervGen Pharma Corp., priority 2023, published 2026):

Tests used:
[1] = Body weights of SCI rats during treatment; type: in vivo, rat; settings: SCI rats vs saline control, measured until the 13th week
Experimental: Adult, female Lewis rats (~160 g on arrival) from Envigo were used as the subjects receiving the treatment in the study. The rats were assigned unique identification numbers (PGI ID and tail marks) and housed in ventilated cages. All rats were examined, handled, and weighed prior to initiation of the study to assure adequate health and suitability. During the course of the study, 12/12 light/dark cycles were maintained. The room temperature was maintained between […] and 23° C. with a relative humidity maintained around 50%. Chow and water were provided adlibitum for the duration of the study. The rats were randomly assigned across treatment groups. Body weights were taken twice a week during the study.
Lyophilized Compound 8 was dissolved in saline and injected s.c. at a volume of 500 μl to animal once daily from day 1-day 49 post spinal cord injury.
The dose concentration was 0.8 mg/ml, corresponding to 400 μg/rat. After reconstitutions, the solution was aliquoted and kept at −20° C. until dosing.
Body weights were taken twice a week for the first 7 weeks after injury and then weekly until endpoint. Health and survival of the animals was evaluated during bladder expressions, body weight and behavioral test, any health concerns were reported and discussed with a veterinarian if needed.

SCI rats = test: Percentage of SCI rats reaching predefined BBB and/or bladder score thresholds at end of study; type: in vivo, rat
From the text: In this study, the effects of Compound 8 in improving the recovery of open field locomotor performance and bladder function in the SCI rats were further evaluated in comparison with Compound 4 by assessing the BBB scores and bladder scores according to the methods described in Example 3.
In this assessment, 12-13 rats were included in each of the following groups (1) Control group 1: SCI+saline alone; (2) Control group 2: SCI+Compound 4 in saline; (3) Testing group: SCI+Compound 8. The treatment was started on day 1 post-injury and continued through (last dose administered on) day 49 post-injury. The post-treatment observation period commenced on day 50 post-injury and continued until the end of study on day 84 post-injury.
At the end of the study, the performance of Compound 8 was evaluated in comparison with Compound 4 and saline alone by calculating the percentages of animals achieving predefined thresholds of functional improvement in the following categories: (i) Simultaneous improvement in BBB and bladder scores, (ii) Improvement in the locomotor function (BBB score) alone but not the in the bladder score, (iii) Improvement in the bladder score alone but not in the BBB score. FIG. 16 depicts the percentage of rats in each of these three categories, as annotated on the X-axis. An additional group (annotated as “Combined”) represents the combined percentage of rats achieving improvement in any of the first three categories for each treatment cohort (saline alone, Compound 4, and Compound 8). […]

## TAT-Cys-rodent PTPRS wedge domain homodimer [Compound 8]
[1]
  effect on body weights: no adverse effects on body weights
SCI rats; end of study
  percentage of rats reaching BBB score of 11 alone: about 8%
  percentage of rats with BBB score of 11 and bladder score of 2 or less simultaneously: about 40%
SCI rats; end of study (day 84)
  percentage of rats with BBB score of at least 10 and bladder score of 2 or less simultaneously: ~50%
  percentage of rats with improvement in the BBB score only (at least 10, no bladder score improvement): about 15%
SCI rats; end of study (day 84), BBB threshold 10
  percentage of rats with improvement in bladder-only scores (2 or less, no BBB improvement): about 8%
SCI rats; end of study (day 84), thresholds BBB at least 10, bladder 2 or less
  combined rate of functional improvement (simultaneous, BBB only and bladder only combined): about 70%
SCI rats; end of study, thresholds BBB 11, bladder 2 or lower
  combined rate of functional improvement (BBB 11 only, bladder 2 or lower only, and both): about 60%
